“Also recorded” adds a separate entry of the source. Where no end group is shown, it is not given here. The star is where a group is joined. Biotin = O=C1N[C@H]2[C@H](CS[C@H]2CCCCC(=O)*)N1
Legend:
[1] = tested on: plant lectins; details: ref [29]; cited from earlier work
Description: NKG2D is a homodimeric, type II receptor whose recognized ligands are cell-surface proteins MICA and MICB, which are major histocompatibility complex class I homologs. Other polypeptide ligands include ULBP, Rae-1 and H60 [26]. Extensive studies of binding of MICA and MICB [24–26] have shown that each homodimer binds a single ligand at the interface of the subunits. Each subunit of NKG2D also contains a lectin domain that binds glycans with specificity for Neu5Ac(α2,3)Gal. […] Binding was inhibited by fet ...

[2] = tested on: siglecs; assay: inhibition of binding of svH1C to siglecs; set-up: species or system human; details: fetuin 10 μM or 30 μM; average of single values in two assays
Protocol: (§1) Isothermal microcalorimetry was performed by TA Instruments Professional Services (New Castle, DE) by titrating 10 μM NKG2D (monomer concentration) (R&D Systems, Inc., Minneapolis, MN) with 100 μM svH1C in 50 mM Tris-HCl, pH 7.5, 150 mM NaCl, 0.1 mM EDTA. Recombinant human receptors were obtained from R&D Systems as chimeric proteins. NKG2D is a type II transmembrane protein and the extracellular lectin-type domain was fused at the N-terminus with a human IgG1 Fc domain. Recombinant siglecs contained a C-terminal IgG1 Fc domain or a His6–10 tag. The lyophilized proteins were reconstituted in phosphate-buffered saline, pH 7.2 (PBS), to 100 μg/mL. The Fc-chimeric proteins were bound to protein A/G-coated wells of microtiter plates (Pierce Biotechnology). His-tagged proteins were bound in Nickel-coated plates (Pierce Biotechnology). Sufficient proteins were added to wells to saturate the binding capacity of the wells. After a wash to remove unbound receptor, wells were blocked with 1% gelatin in wash buffer. […] Absorbance was measured at 450 nm and converted to the amount of streptavidin-peroxidase bound with the specific activity of the conjugate determined under the conditions of the assay. […]
Fig 3 Binding of svH1C to lectin-type receptors. […] SEM was determined for six assays from four independent experiments. […]

[3] = tested on: lectins that bind monosaccharides; details: Neu5Ac, Gal, GalNAc or fucose lectins; ref [29],[30]; cited from earlier work
Description: We initially identified several sequences of amino acids that bound to specific plant lectins by screening phage display libraries. Sequences were further refined by in silico modeling of docking of a peptide into the sugar binding site of the crystal structures of lectins. These studies predicted that several short peptide sequences, 5 to 8 amino acids in length, would have significant affinity to lectins chosen as analogs of cell-surface receptors. […] MAA is a mixture of M. amurensis leukoagglutinin (MAL) and M. amurensis hemagglutinin (MAH), both of which along with SNA1 bind preferentially to terminal Neu5Ac-Gal- sequences on complex glycans. Binding of the peptide to several lectins specific for monosaccharides was not detected. We then assayed binding of svH1C to several siglecs, which comprise a family of cell-surface receptors that are specific for Neu5Ac-Gal/GalNAc- sequ ...

[4] = tested on: siglecs; assay: solid-phase binding of biotinylated tetravalent peptides to siglecs; set-up: species or system human; details: biotinylated peptides 2 μM
Protocol: as §1, with “buffer. Wash buffers were either 10 mM phosphate, pH 7.2; 10 mM HEPES, pH 7.4; or 50 mM Tris-HCl, pH.7.5, each in 150 mM NaCl containing 0.05% Tween-20. Biotinylated peptides were prepared as 2 μM solutions in the wash buffer and 50 μL (100 pmoles) were added to each well and incubated at room temperature for one hour. After four washes with 350 μL buffer containing 0.05% Tween-20, each assay was incubated with 50 μL of 1 μg/mL streptavidin-peroxidase (Sigma-Aldrich, St. Louis, MO).” for “buffer.”
MAA is a mixture of M. amurensis leukoagglutinin (MAL) and M. amurensis hemagglutinin (MAH), both of which along with SNA1 bind preferentially to terminal Neu5Ac-Gal- sequences on complex glycans. Binding of the peptide to several lectins specific for monosaccharides was not detected. […]

[5] = molecular target: T1, NKG2D (Homo sapiens, UniProt P26718); assay: inhibition of binding of svH1C to NKG2D; details: added with 2 μM svH1C; PBS/0.05% Tween-20; average of single values from three separate assays; fetuin 5, 10, 30 μM; sialyllactose 12, 20, 40 μM
T1 construct: the extracellular lectin-type domain was fused at the N-terminus with a human IgG1 Fc domain; purchased R&D Systems, Inc., Minneapolis, MN
T1 sequence (P26718 73-216 limits assumed): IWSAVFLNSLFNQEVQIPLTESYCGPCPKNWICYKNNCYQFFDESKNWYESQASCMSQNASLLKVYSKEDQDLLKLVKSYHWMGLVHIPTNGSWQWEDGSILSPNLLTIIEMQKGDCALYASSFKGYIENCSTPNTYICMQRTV
Protocol: as §1
Fig 4 Binding of svH1C to NKG2D. (A) The amount of bound peptide was measured after extensive washing with PBS containing 0.05% Tween-20. […]

[6] = molecular target: CD45 (Homo sapiens) (UniProt P08575); details: cited from earlier work
Sequence of CD45 (Homo sapiens) (P08575 26-577): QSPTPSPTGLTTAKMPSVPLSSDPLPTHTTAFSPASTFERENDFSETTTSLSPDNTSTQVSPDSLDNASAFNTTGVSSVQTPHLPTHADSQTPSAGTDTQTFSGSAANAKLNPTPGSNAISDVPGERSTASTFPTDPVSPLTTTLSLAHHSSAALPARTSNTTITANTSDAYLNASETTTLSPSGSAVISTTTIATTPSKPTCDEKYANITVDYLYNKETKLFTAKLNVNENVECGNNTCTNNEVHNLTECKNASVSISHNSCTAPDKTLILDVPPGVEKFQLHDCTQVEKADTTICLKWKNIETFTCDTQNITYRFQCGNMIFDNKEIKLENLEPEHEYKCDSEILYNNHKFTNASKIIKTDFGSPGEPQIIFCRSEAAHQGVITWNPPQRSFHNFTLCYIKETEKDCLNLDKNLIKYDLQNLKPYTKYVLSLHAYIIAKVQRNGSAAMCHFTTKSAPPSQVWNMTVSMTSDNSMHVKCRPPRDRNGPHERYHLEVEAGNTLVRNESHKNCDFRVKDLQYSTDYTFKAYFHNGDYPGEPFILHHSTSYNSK

[7] = tested on: Siglec-2; details: ref Kelm et al. [68], cited from earlier work
Description: Most siglecs are inhibitory receptors containing an ITIM [9–12] and express full activity when a ligand is bound. As documented with Siglec-2 on B cells, a functional ligand binding site is required for tyrosine phosphorylation, recruitment of the phosphatase SHP-1, and inhibition of B cell activation.

[8] = molecular target: NKG2D; details: approximately; ref [24]–[26]; cited from earlier work
Protocol: NKG2D lacks a signaling motif in its cytoplasmic domain and functions as an activating receptor in association with adaptor proteins, DAP10 and DAP12 [75]. In addition to NKG2D, NK cells express other activating cytotoxicity receptors such as NKp30, NKp44 and NKp46. These receptors bind to tandemly multivalent heparan sulfate/heparin sequences with KD values of 0.3 to 2 μM [76]. Similarly to NKG2D, NKp46 also binds multivalent sialyl-Lewis^X with a KD of approximately 0.6 μM [77]. The native in vivo ligands for NKG2D are divergent proteins, MIC-A/B, ULBP, Rae-1 or H60, which bind the rec ...

[9] = molecular target: T2, recombinant human NKG2D, Fc chimera (human, UniProt P26718 73-216); assay: ELISA; inhibition: fetuin (5, 10 or 30 μM) added along with 2 μM biotinylated svH1C to immobilised receptor; PBS with 0.05% Tween-20
T2 construct: NKG2D, human, extracellular lectin-type domain; Type II transmembrane protein; source: bought: R&D Systems; not shown: Fc (human IgG1), N-terminal, kept
T2 sequence (looked up): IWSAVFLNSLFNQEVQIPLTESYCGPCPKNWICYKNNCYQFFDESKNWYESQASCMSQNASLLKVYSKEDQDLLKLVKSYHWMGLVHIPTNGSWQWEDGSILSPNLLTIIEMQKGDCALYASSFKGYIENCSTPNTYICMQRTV

## digestion of fetuin with neuraminidase: fetuin digested with neuraminidase
[1]
  competition with svH1C for binding to plant lectins: nearly eliminated its ability to inhibit binding

## fetuin: fetal bovine fetuin (purity, 88%; cat. no. 341506, Calbiochem)
[2]
  inhibition of binding of svH1C to siglecs by fetuin: inhibited; also recorded: as effective an inhibitor of binding of svH1C to NKG2D as it was of the binding of the peptide to siglecs
[1]
  competition with svH1C for binding to plant lectins: effectively competed

## HPSLK [sv6B]
[3]
  avidity to lectins that bind monosaccharides, relative to natural ligands: several orders of magnitude greater than their natural ligands
[4]
  binding of biotinylated tetravalent peptides to siglecs: also bound to siglecs

## sialyllactose [reference compound]
[5]
  IC50: ~18 µM

## Siglec-2 (CD22) (from UniProt P20273)
[6]
  Kd: 117 µM

## [(VGGGSGGGS)2K]2K-ε-biotinyl-K-NH2 [peptide used as a negative control, reference compound]
[4]
  binding of biotinylated tetravalent peptides to siglecs: no binding

## CO[C@]1(C(=O)O)C[C@H](O)[C@@H](NC(C)=O)[C@H]([C@H](O)[C@H](O)CNC(=O)c2ccc(-c3ccccc3)cc2)O1 [BPC-Neu5Ac]
[7]; after cells were treated with neuraminidase
  IC50: 4 µM
[7]
  tyrosine phosphorylation and inhibitory activity of Siglec-2: reduced tyrosine phosphorylation and attenuated the receptor’s inhibitory activity

B1: MIC-A/B: native in vivo ligands for NKG2D; major histocompatibility complex class I homologs (protein, UniProt Q29983 24-383; Q29980 23-383, looked up)
MHC class I … 1: EPHSLRYNLTVLSWDGSVQSGFLTEVHLDGQPFLRCDRQKCRAKPQGQWAEDVLGNKTWDRETRDLTGNGKDLRMTLAHIKDQKEGLHSLQEIRVCEIHEDNSTRSSQHFYYDGELFLSQNLETKEWTMPQSSRAQTLAMNVRNFLKEDAMKTKTHYHAMHADCLQELRRYLKSGVVLRRTVPPMVNVTRSEASEGNITVTCRASGFYPWNITLSWRQDGVSLSHDTQQWGDVLPDGNGTYQTWVATRICQGEEQRFTCYMEHSGNHSTHPVPSGKVLVLQSHWQTFHVSAVAAAAIFVIIIFYVRCCKKKTSAAEGPELVSLQVLDQHPVGTSDHRDATQLGFQPLMSDLGSTGSTEGA
MHC class I … 2: AEPHSLRYNLMVLSQDGSVQSGFLAEGHLDGQPFLRYDRQKRRAKPQGQWAENVLGAKTWDTETEDLTENGQDLRRTLTHIKDQKGGLHSLQEIRVCEIHEDSSTRGSRHFYYDGELFLSQNLETQESTVPQSSRAQTLAMNVTNFWKEDAMKTKTHYRAMQADCLQKLQRYLKSGVAIRRTVPPMVNVTCSEVSEGNITVTCRASSFYPRNITLTWRQDGVSLSHNTQQWGDVLPDGNGTYQTWVATRIRQGEEQRFTCYMEHSGNHGTHPVPSGKALVLQSQRTDFPYVSAAMPCFVIIIILCVPCCKKKTSAAEGPELVSLQVLDQHPVGTGDHRDAAQLGFQPLMSATGSTGSTEGT
[8]
  Kd: ~1 µM

B2: fetal bovine fetuin (natural protein, UniProt P12763 19-359, looked up)
chain: IPLDPVAGYKEPACDDPDTEQAALAAVDYINKHLPRGYKHTLNQIDSVKVWPRRPTGEVYDIEIDTLETTCHVLDPTPLANCSVRQQTQHAVEGDCDIHVLKQDGQFSVLFTKCDSSPDSAEDVRKLCPDCPLLAPLNDSRVVHAVEVALATFNAESNGSYLQLVEISRAQFVPLPVSVSVEFAVAATDCIAKEVVDPTKCNLLAEKQYGFCKGSVIQKALGGEDVRVTCTLFQTQPVIPQPQPDGAEAEAPSAVPDAAGPTPSAAGPPVASVVVGPSVVAVPLPLHRAHYDLRHTFSGVASVESSSGEAFHVGKTPIVGQPSIPGGPVRLCPGRIRYFKI
modifications: three N-linked and three O-linked glycans per molecule, with termini Neu5Ac(α2,3)Gal or Neu5Ac(α2,6)Gal
notes: fetuin, fetal bovine; source: bought: Calbiochem, EMD Chemicals (purity, 88%)
[9]; both partners purified
  IC50: ~3 µM

B3: svH1C, biotin-tagged tetravalent peptide [(…)2K]2K-ε-biotinyl-K-NH2 (peptide)
chain 1: NPSHPLSGGGGS
chain 2: KKKK(Biotin)-NH2
modifications: also: tetravalent branched: four NPSHPLSGGGGS arms on tri-lysine core joined by peptide and iso-peptide bonds
[9]
  binding constant estimated from the inhibition by fetuin: 1 µM
  streptavidin-peroxidase conjugate bound (average 100% value, without inhibitor): 2.4 ng
